Data taken from PubChem BioAssay (NCI).
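How tested: cells in 96-well plates exposed to compound for 48 hours at five concentrations. GI50 = concentration required for 50% inhibition of growth. TGI denotes the concentration required for complete inhibition of growth.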

Assays:
Experiment in all cases: NCI tumour cell line growth inhibition, 48 h
SW-620 colon = tested on: SW-620 colon
SN12C renal = tested on: SN12C renal
HT29 colon = tested on: HT29 colon
A549 NSCLC = tested on: A549 NSCLC
SNB-75 CNS = tested on: SNB-75 CNS
UACC-257 melanoma = tested on: UACC-257 melanoma
HCT-15 colon = tested on: HCT-15 colon
SNB-19 CNS = tested on: SNB-19 CNS
LOX IMVI melanoma = tested on: LOX IMVI melanoma
SK-OV-3 ovarian = tested on: SK-OV-3 ovarian

Row | Compound | TGI (SW-620 colon) | TGI (SN12C renal) | TGI (HT29 colon) | TGI (A549 NSCLC) | TGI (SNB-75 CNS) | TGI (UACC-257 melanoma) | TGI (HCT-15 colon) | TGI (SNB-19 CNS) | TGI (LOX IMVI melanoma) | TGI (SK-OV-3 ovarian) | GI50 (SW-620 colon) | GI50 (SN12C renal) | GI50 (HT29 colon) | GI50 (A549 NSCLC) | GI50 (SNB-75 CNS) | GI50 (UACC-257 melanoma) | GI50 (HCT-15 colon) | GI50 (SNB-19 CNS) | GI50 (LOX IMVI melanoma) | GI50 (SK-OV-3 ovarian)
1 | CC(C)C1(O)C(c2ccccc2)=C(c2ccccc2)C(c2ccccc2)=C1c1ccccc1 | > 100 µM | 41.6 µM | 16 µM | 54.6 µM | 58.5 µM | 26.2 µM | 46.8 µM | > 100 µM | 20 µM | > 100 µM | – | – | – | – | – | – | – | – | – | –
2 | COc1ccc(-c2oc3c(OC)c(OC)c(OC)c(O)c3c(=O)c2OC)cc1OC | > 66.1 µM | > 100 µM | > 78.2 µM | > 100 µM | 13.2 µM | > 100 µM | > 100 µM | > 100 µM | > 76.3 µM | 63.8 µM | – | – | – | – | – | – | – | – | – | –
3 | O=C(Nc1ccc(Cl)cc1Cl)C(=O)C(C(=O)c1ccc2ccccc2c1)C1OC(=O)c2ccccc21 (stereo not drawn) | 24.9 µM | 30.7 µM | 33.1 µM | 73.6 µM | – | 65.3 µM | 42.3 µM | 22.1 µM | 24.9 µM | > 100 µM | – | – | – | – | – | – | – | – | – | –
4 | COC(=O)C1C(O)CC(c2ccccn2)N(Cc2ccccc2)C1c1ccccn1 (stereo not drawn) | > 100 µM | > 100 µM | > 100 µM | > 100 µM | > 100 µM | > 100 µM | > 100 µM | > 100 µM | > 100 µM | > 100 µM | – | – | – | – | – | – | – | – | – | –
5 | COC1=CC(=O)C2C(C1=O)[C@@H]1c3ccccc3C[C@H]21 (stereo partly drawn) | > 100 µM | – | > 100 µM | > 100 µM | > 100 µM | > 100 µM | > 100 µM | > 100 µM | > 100 µM | > 100 µM | – | – | – | – | – | – | – | – | – | –
6 | O=C(O)COc1ccc(O)c2c1C(=O)CCCC2=O | > 100 µM | > 100 µM | > 100 µM | > 100 µM | – | > 100 µM | > 100 µM | > 100 µM | > 100 µM | > 100 µM | – | – | – | – | – | – | – | – | – | –
7 | COc1ccc(-c2cc(=O)c3c(C)cc(C)nc3[nH]2)cc1 | > 100 µM | > 100 µM | > 100 µM | > 100 µM | – | 85.3 µM | > 100 µM | > 100 µM | > 100 µM | > 100 µM | – | – | – | – | – | – | – | – | – | –
8 | O=C1C(c2c[nH]c3ccccc23)=C(c2c[nH]c3ccccc23)C(=O)N1O | > 25 µM | > 25 µM | > 25 µM | > 25 µM | > 25 µM | > 25 µM | > 25 µM | > 25 µM | > 25 µM | > 25 µM | > 25 µM | > 25 µM | > 25 µM | > 25 µM | > 25 µM | > 25 µM | > 25 µM | > 25 µM | 4.65 µM | > 25 µM
9 | OCCCOC(c1ccccc1)(c1ccccc1)c1ccccc1 | > 100 µM | > 100 µM | 92.8 µM | > 100 µM | 62 µM | > 100 µM | > 100 µM | – | > 100 µM | > 100 µM | – | – | – | – | – | – | – | – | – | –
10 | O=CC(O)C(O)C(O)C(O)C(=O)NCCCCCCCCCCCCNC(=O)C(O)C(O)C(O)C(O)C=O (stereo not drawn) | > 100 µM | – | > 100 µM | > 100 µM | – | > 100 µM | > 100 µM | > 100 µM | > 100 µM | > 100 µM | – | – | – | – | – | – | – | – | – | –
